Experimental findings from publication PMC2632993, “Conformational changes in α7 acetylcholine receptors underlying allosteric modulation by divalent cations” (BMC Pharmacology, 2009) are described below.

Type in all cases: cell-based, chick
For test [1], the target named is α7 C^115A/L^247T receptor (Gallus gallus, UniProt P22770, C138A/L270T). In words: ACh dose-response, two-electrode voltage clamp in Xenopus oocytes. The source says:
(§1) A cDNA clone of the chick α7 receptor containing two mutations (C^115A, L^247T) was used as the parental phenotype for mutations described in this study. We mutated the lone unpaired cysteine in the extracellular domain (C^115) to alanine to allow for a more straightforward interpretation of thiol modification experiments. […] We included the mutation of leucine 247 in the M2 transmembrane domain (L^247T; L9'T) because of its large current amplitudes and non-desensitizing kinetics compared to wild-type α7 receptors. […] All mutations were introduced by site-directed mutagenesis using the QuikChange method (Agilent Technologies, La Jolla, CA) as described previously, and were confirmed by DNA sequencing.
(§2) cRNA was prepared using the T7 RNA polymerase and mMessage mMachine kit as described by the manufacturer (Applied Biosystems, Austin, TX). Oocytes were surgically removed and prepared from female Xenopus laevis in accordance with UNC Institutional Animal Care and Use Committee guidelines. Oocytes were injected with 20 ng of cRNA and incubated at 18°C in ND96 (96 mM NaCl, 2 mM KCl, 1 mM MgCl2, 1.8 mM CaCl2, 5 mM Na pyruvate, 50 μg/ml gentamicin, 5 mM HEPES, pH 7.5) for 2–5 days before use. For some mutants we co-injected cRNA encoding the human RIC-3 [38], a protein shown to enhance expression of α7 AChRs in both mammalian cells and oocytes.
(§3) Oocytes were superfused in normal extracellular solution containing a reduced Ca^2+ concentration (ESLC; 96 mM NaCl, 2 mM KCl, 1 mM MgCl2, 0.1 mM CaCl2, and 10 mM HEPES, pH 7.5). […] Two-electrode voltage clamp was performed with a GeneClamp 500B controlled by pCLAMP8 software (Molecular Devices, Sunnyvale, CA). Electrodes were filled with 3 M KCl contacting Ag-AgCl wires and had resistances of 0.5 to 2.0 MΩ. Currents were recorded at a constant holding potential of -60 mV. Currents were low pass filtered at 50 Hz and sampled at 100 Hz. Agonist dose-response curves were obtained as described previously, and data were fit to the Hill equation using Origin software (Microcal Software, Northampton, MA).
(§4) MTSEA was prepared daily in distilled water and stored on ice. Stock solution was diluted to the appropriate working concentration in ESLC immediately before each application. […] To measure the effect of Ba^2+ on modification rates we pre-applied 10 mM Ba^2+ for 30 seconds prior to co-application of 10 mM Ba^2+ plus MTSEA. […] Kinetic data were analyzed as described previously; rate data were fit to a single exponential to extract a pseudo-first order rate constant; this was divided by the MTSEA concentration used to determine the second order rate constant for thiol modification.

The target in test [2] is α7 AChR M^40C/E^172Q mutant (C^115A/L^247T background) (Gallus gallus, UniProt P22770, C138A/E195Q/L270T/M63C). The description is as above.
From the text: as §1, §2, §3, §4

Test [3] concerns the target α7 AChR N^170C mutant (C^115A/L^247T background) (Gallus gallus, UniProt P22770, C138A/L270T/N193C). The test is described as above. The following applies: co-expression with human RIC-3, fraction of maximal ACh-evoked current evoked by 10 mM Ba^2+ in the absence of ACh.
From the text: as §1, §2, §3, §4

Test [4] addresses α7 AChR E^44C mutant (C^115A/L^247T background) (Gallus gallus, UniProt P22770, C138A/E67C/L270T). The test is described as above.
From the text: as §1, §2, §3, §4

In test [5] the target is α7 AChR N^52C mutant (C^115A/L^247T background) (Gallus gallus, UniProt P22770, C138A/L270T/N75C). Described as above.
From the text: as §1, §2, §3, §4

In test [6] the target is α7 AChR E^172C mutant (C^115A/L^247T background) (Gallus gallus, UniProt P22770, C138A/E195C/L270T). The test is described as above.
From the text: as §1, §2, §3, §4

Test [7] addresses α7 AChR M^37C mutant (C^115A/L^247T background) (Gallus gallus, UniProt P22770, C138A/L270T/M60C). The description is as above. The following applies: fraction of maximal ACh-evoked current evoked by 10 mM Ba^2+ in the absence of ACh.
From the text: as §1, §2, §3, §4

The target of test [8] is T1, α7 AChR M^40C mutant (C^115A/L^247T background) (Gallus gallus, UniProt P22770, C138A/L270T/M63C).
T1 construct: expressed in transfected cells; host or cells: Xenopus laevis oocytes injected with cRNA
The following applies: fraction of maximal ACh-evoked current evoked by 10 mM Ba^2+ in the absence of ACh.
From the text: as §1, with “sequencing. […]” for “sequencing.”
Oocytes were superfused in normal extracellular solution containing a reduced Ca^2+ concentration (ESLC; 96 mM NaCl, 2 mM KCl, 1 mM MgCl2, 0.1 mM CaCl2, and 10 mM HEPES, pH 7.5). […] Currents were recorded at a constant holding potential of -60 mV. […]
MTSEA was prepared daily in distilled water and stored on ice. […] Kinetic data were analyzed as described previously; rate data were fit to a single exponential to extract a pseudo-first order rate constant; this was divided by the MTSEA concentration used to determine the second order rate constant for thiol modification.

Where [9] appears, read: fraction of maximal ACh-evoked current evoked by 10 mM Ba^2+ in the absence of ACh.
Setting [10] is: co-expression with human RIC-3, fraction of maximal ACh-evoked current evoked by 10 mM Ba^2+ in the absence of ACh.

Each structure is given as a SMILES string. Entries after “also recorded” stand apart in the source; their conditions may differ.

As to `[Ba+2].[Cl-].[Cl-]` [Ba^2+, BaCl2], the “decrease in ACh EC50 (leftward shift in the dose-response curve) caused by Ba^2+” value in test [1] (10 mM Ba^2+) is recorded as ~ 10 fold. Moreover, the “Ba^2+ efficacy” value is listed as 0.1 in test [1] (setting [9]); 0.02 in test [2] (setting [10]); 0.03 in test [3]; 0.01 in test [4] (setting [9]); 0.6 in test [5] (setting [9]); 0.02 in test [6] (setting [10]). The “Ba^2+ efficacy” value in test [7] is recorded as 0.2; in test [8], 0.1. Also, the “positive allosteric modulation of ACh currents by Ba^2+” value in test [2] (10 mM Ba^2+) was “not positively modulated”; in test [4] (10 mM Ba^2+) it was “eliminated; also recorded: no positive allosteric modulation”; in test [6] (10 mM Ba^2+) it was “no positive allosteric modulation”. Besides, the “agonism by Ba^2+ in the absence of ACh” value in test [5] (10 mM Ba^2+) is on record as “high partial agonism”.
